In article PMC6137088, “The Role of Outer Membrane Proteins and Lipopolysaccharides for the Sensitivity of Escherichia coli to Antimicrobial Peptides” (Frontiers in Microbiology, 2018):
Structures can show the parent of a compound that is named as a salt. Where a SMILES comes first, the peptide text is derived from it. Bridges are numbered along the chain shown (N, C = ends). Where no end group is shown, it is not given here. [ ]: non-standard residue; d: D form. The star is where a group is joined. X1 = CC[C@H](C)CCCCC(=O)*; Dab = NCC[C@H](N)C(=O)O

How the values were obtained:
[1] = test system: E. coli BW25113 waaF::kan; type: cell-based, Escherichia coli; details: for MIC: Table 3, BW25113 waaF::kan, Mueller-Hinton-II, 16–20 h, duplicates (*) or triplicates
Source text: (§1) The E. coli strains 470, F632, F653 and F2513 were kindly provided by Prof. H. Brade and Prof. S. Muller-Loennies, Research Center Borstel, Leipniz-Center for Medicine and Biosciences, Germany. E. coli BW25113 (CGSC#:7636), a derivative of F^−, λ^− E. coli K12 strain BD792 is the wild-type strain which was used in the generation of the KEIO collection and ordered from the Coli Genetic Stock Centre (CGSC, Yale University). E. coli JW3596, E. coli JW3024, E. coli JW3595, E. coli JW3606, E. coli JW0212, E. coli JW1667, E. coli JW0554, E. coli JW3605 and E. coli JW3600 are isogenic mutants of waaC, waaE, waaF, waaG, gmhA (lpcA), lpp, ompT, waaP, or waaY derived from the parental strain E. coli BW25113 and were ordered from the KEIO collection (Baba et al., [2006]). E. coli ATCC25922 is a clinical isolate, serotype O6, often used as control strain in antimicrobial susceptibility testing was ordered from the ATCC strain collection. All strains were grown in Mueller-Hinton-II medium and incubation took place aerobically at 37°C for 18–20 h.
(§2) The minimum inhibitory concentrations (MICs) of the AMPs were measured in 96-well microtiter plates according the Clinical and Laboratory Standards Institute [CLSI, formerly National Committee for Clinical Laboratory Standards (NCCLS)] (Wikler et al., [2009]). Liquid Mueller-Hinton-II medium containing increasing concentrations of AMPs is inoculated with a defined number of cells (~10^5 CFUs/ml) in 96-well microtiter plates (polypropylene). Each microtiter plate includes a positive growth control and a negative control (sterile control). After incubation, the minimal inhibitory concentration (MIC) is determined by the lowest concentration showing no visible growth. All plates were incubated for 16–20 h.

[2] = test system: E. coli BW25113 waaC::kan; type: cell-based, Escherichia coli; details: for MIC: Table 3, BW25113 waaC::kan, Mueller-Hinton-II, 16–20 h, duplicates (*) or triplicates
Source text: as §1, §2

[3] = test system: E. coli BW25113 gmhA::kan; type: cell-based, Escherichia coli; details: for MIC: Table 3, BW25113 gmhA::kan, Mueller-Hinton-II, 16–20 h, duplicates (*) or triplicates
Source text: as §1, §2

[4] = test system: E. coli BW25113 waaG::kan; type: cell-based, Escherichia coli; details: for MIC: Table 3, BW25113 waaG::kan, Mueller-Hinton-II, 16–20 h, duplicates (*) or triplicates
Source text: as §1, §2

[5] = test system: E. coli BW25113 waaY::kan; type: cell-based, Escherichia coli; details: Table 3, Mueller-Hinton-II, 16–20 h, duplicates (*) or triplicates
Source text: as §1, §2

[6] = test system: E. coli BW25113 waaE::kan; type: cell-based, Escherichia coli; details: for MIC: Table 3, BW25113 waaE::kan, Mueller-Hinton-II, 16–20 h, duplicates (*) or triplicates
Source text: as §1, §2

[7] = test system: E. coli BW25113; type: cell-based, Escherichia coli; details: for MIC: Table 3, E. coli BW25113 wild type, Mueller-Hinton-II, ~10^5 CFUs/ml, 16–20 h, duplicates (*) or triplicates
Source text: as §1, §2

[8] = test system: E. coli BW25113 lpp::kan; type: cell-based, Escherichia coli; details: for MIC: Table 3, BW25113 lpp::kan, Mueller-Hinton-II, 16–20 h, duplicates (*) or triplicates
Source text: as §1, §2

[9] = test system: E. coli BW25113 waaP::kan; type: cell-based, Escherichia coli; details: for MIC: Table 3, BW25113 waaP::kan, Mueller-Hinton-II, 16–20 h, duplicates (*) or triplicates
Source text: as §1, §2

[10] = test system: E. coli BW25113 ompT::kan; type: cell-based, Escherichia coli; details: for MIC: Table 3, BW25113 ompT::kan, Mueller-Hinton-II, 16–20 h, duplicates (*) or triplicates
Source text: as §1, §2

[11] = test system: E. coli F653 (R3); type: cell-based, Escherichia coli; details: Table 4; E. coli F653 (R3 prototype, rough LPS); triplicates
Source text: as §1, §2

[12] = test system: E. coli F470 (R1); type: cell-based, Escherichia coli; details: Table 4; E. coli F470 (R1 prototype, rough LPS); triplicates
Source text: as §1, §2

[13] = test system: E. coli F2513 (R4); type: cell-based, Escherichia coli; details: Table 4; E. coli F2513 (R4 prototype, rough LPS); triplicates
Source text: as §1, §2

[14] = test system: E. coli F632 (R2); type: cell-based, Escherichia coli; details: Table 4; E. coli F632 (R2 prototype, rough LPS); triplicates
Source text: as §1, §2

[15] = test system: E. coli ATCC25922 ΔwaaG; type: cell-based, Escherichia coli; details: Table 6, triplicates
Source text: as §1, §2

[16] = test system: E. coli ATCC25922 ΔwaaE; type: cell-based, Escherichia coli; details: Table 6, triplicates
Source text: as §1, §2

[17] = test system: E. coli ATCC25922 ΔwaaC; type: cell-based, Escherichia coli; details: Table 6, triplicates
Source text: as §1, §2

[18] = test system: E. coli ATCC25922; type: cell-based, Escherichia coli; details: triplicates; for Antimicrobial activity: MIC: Table 6, E. coli ATCC25922 wild-type
Source text: as §1, §2

[19] = test system: E. coli ATCC25922 ΔwaaF; type: cell-based, Escherichia coli; details: Table 6, triplicates
Source text: as §1, §2

[20] = test system: S. typhimurium LT2; assay: MIC testing (CLSI broth microdilution); type: cell-based; details: Table 6, triplicates
Protocol: as §2

[21] = test system: Y. ruckeri 392/2003; assay: MIC testing (CLSI broth microdilution); type: cell-based; details: Table 6, triplicates
Protocol: as §2

[22] = test system: E. coli ATCC25922 LPS mutants (ΔwaaC, ΔwaaE, ΔwaaF, ΔwaaG); type: cell-based, Escherichia coli; details: E. coli ATCC25922 background (text prints ATCC29522); summary of Table 6
Source text: as §1, with “[…],” for “E. coli JW3605 and E. coli JW3600 are isogenic mutants of waaC, waaE, waaF, waaG,”, “or waaY derived from the parental strain E. coli BW25113 and were ordered from the” left out
as §2

Compound	MIC [1] [µg/mL]	MIC [2] [µg/mL]	MIC [4] [µg/mL]	MIC [5] [µg/mL]	MIC [6] [µg/mL]	MIC [7] [µg/mL]	MIC [9] [µg/mL]	Antimicrobial activity: MIC [15] [µg/mL]	Antimicrobial activity: MIC [16] [µg/mL]	Antimicrobial activity: MIC [17] [µg/mL]	Antimicrobial activity: MIC [18] [µg/mL]	Antimicrobial activity: MIC [19] [µg/mL]	Antimicrobial activity: MIC [20] [µg/mL]	Antimicrobial activity: MIC [21] [µg/mL]	MIC / antimicrobial activity in LPS mutants harboring a deletion in waaC, waaE, waaF, or waaG [22] [µg/mL]	further results
CC[C@H](C)CCCCC(=O)N[C@@H](CCN)C(=O)N[C@H](C(=O)N[C@@H](CCN)C(=O)N[C@H]1CCNC(=O)[C@H]([C@@H](C)O)NC(=O)[C@H](CCN)NC(=O)[C@H](CCN)NC(=O)[C@H](CC(C)C)NC(=O)[C@@H](CC(C)C)NC(=O)[C@H](CCN)NC1=O)[C@@H](C)O [Colistin, colistin sulfate] (X1-[Dab]T[Dab][Dab][Dab][dL]L[Dab][Dab]T; lactam 4-C (inferred); N-terminus assumed)	0.063	0.063 to 0.125	0.063 to 0.125	0.125 to 0.25	0.063 to 0.125	0.125 to 0.25	0.125 to 0.25									increase in antimicrobial activity against BW25113 waaF::kan compared to parental BW25113 ([1]; from MIC values of Table 3): up to 2 fold; increase in antimicrobial activity against BW25113 waaC::kan compared to parental BW25113 ([2]; from MIC values of Table 3): up to 2 fold; MIC [3]: 0.063 µg/mL; increase in antimicrobial activity against BW25113 gmhA::kan compared to parental BW25113 ([3]; from MIC values of Table 3): up to 2 fold; increase in antimicrobial activity against BW25113 waaG::kan compared to parental BW25113 ([4]; from MIC values of Table 3): up to 2 fold; increase in antimicrobial activity against BW25113 waaE::kan compared to parental BW25113 ([6]; from MIC values of Table 3): up to 2 fold; MIC [8]: 0.063 to 0.125 µg/mL; increase in antimicrobial susceptibility of the lpp mutant compared to the wild-type (factor) ([8]; from MIC values of Table 3): 2; increase in antimicrobial activity in a waaP mutant background compared to the wild-type strain (times) ([9]; from MIC values of Table 3): not changed; MIC [10]: 0.125 to 0.25 µg/mL; increase of antimicrobial activity in the ompT mutant compared to the parental strain BW25113 (factor) ([10]; from MIC values of Table 3): unchanged
GLRKKFRKTRKRIQKLGRKIGKTGRKVWKAWREYGQIPYPCRI [Cap11]	8	8	8	8 to 16	8	8	8 to 16									Antimicrobial activity (MIC) [11]: 16 µg/mL; MIC [3]: 8 ^* μg/ml; Antimicrobial activity (MIC) ([7]; Table 4, E. coli BW25113 (K12 core type), triplicates): 8 µg/mL; MIC [8]: 8 ^* μg/ml; Antimicrobial activity (MIC) [12]: 16 µg/mL; Antimicrobial activity (MIC) [13]: 4 to 8 µg/mL; Antimicrobial activity (MIC) [14]: 8 µg/mL
GLRKRLRKFRNKIKEKKKKIGQKIQGLLPKLAPRTDY [L17K]								8	8	8	≥64	8	16	≥64	4 to 8	
GLRKRLRKFRNKIKEKLKKEGQKIQGLLPKLAPRTDY [I20E]								8	4	4	≥64	4	8	32	4 to 8	
GLRKRLRKFRNKIKEKLKKIGQKGQGLLPKLAPRTDY [I24G]								8	8	8	≥64	8	8 to 16	32	4 to 8	
GLRKRLRKFRNKIKEKLKKIGQKIQGPLPKLAPRTDY [L27P]								4	4	8	≥64	4	8	32	4 to 8	
SWLSKTAKKLENSAKKRISEGIAIAIQGGPR [Cecropin P1]	4	8	16	32	8	16 to 32	16 to 32									Antimicrobial activity (MIC) [11]: 32 µg/mL; Antimicrobial activity (MIC) [12]: 32 µg/mL; Antimicrobial activity (MIC) [13]: 16 to 32 µg/mL; Antimicrobial activity (MIC) ([18]; Table 4, E. coli ATCC25922 (smooth LPS)): 32 µg/mL; MIC [10]: 16 ^* μg/ml; Antimicrobial activity (MIC) [14]: 32 µg/mL
